In US20100137138A1, “HERBICIDE/SAFENER COMBINATION” (BAYER CROPSCIENCE AG, priority 2008, published 2010):

What was measured:
Format in all cases: in vivo
Barley (Adonis) = assay: Post-emergence herbicidal effect and safener effect, Barley (Adonis); settings: herbicide dosage 25 g a.i./ha, visual scoring vs untreated controls
Experimental: (§1) Seeds or rhizome pieces of mono- and dicotyledonous harmful plants and of crop plants are planted in peat pots in sandy loam, covered with earth and grown in a greenhouse under good growth conditions. Alternatively to this, harmful plants occurring in the paddy rice cultivation are cultivated in pots in which water stands up to 2 cm above the soil surface. 10 to 20 days after sowing, the test plants are treated in the one to three-leaf stage. The herbicide/safener active ingredient combinations according to the invention, formulated as water-soluble powders or suspensions, and, in parallel experiments, the correspondingly formulated individual active ingredients are sprayed onto the green plant parts in various dosages using an application rate of 300 l of water/ha (converted) and, after the test plants have remained in the greenhouse under optimum growth conditions for 2-3 weeks, the effect of the preparations is scored visually in comparison with untreated controls. In the case of rice or in the case of harmful plants which occur in the rice cultivation, the active ingredients are also placed directly into the irrigation water (application analogous to the so-called granules application) or sprayed onto plants and into the irrigation water.

Rice (Ballila) = assay: Post-emergence herbicidal effect and safener effect, Rice (Ballila); settings: herbicide dosage 100 g a.i./ha, visual scoring vs untreated controls
Experimental: as §1

Corn (Aventura) [1] = assay: Post-emergence herbicidal effect and safener effect, Corn (Aventura); settings: herbicide dosage 50 g a.i./ha, visual scoring vs untreated controls
Experimental: as §1

Wheat (Triso) = assay: Pre-emergence herbicidal effect and safener effect, Wheat (Triso); settings: herbicide dosage 100 g a.i./ha, visual scoring vs untreated controls
From the text: (§2) Seeds or rhizome pieces of mono- and dicotyledonous weed plants and crop plants were planted in peat pots in sandy loam and covered with earth. The herbicide/safener active ingredient combinations according to the invention, formulated as water-soluble powders or suspensions, and, in parallel experiments, the correspondingly formulated individual active ingredients were then applied to the surface of the covering earth at an application rate of 600 to 800 l of water/ha (converted) in a variety of dosages.
(§3) After the treatment, the pots were placed in the greenhouse and kept under good growth conditions for the weeds and the crop plants. Visual scoring of the plant damage or emergence damage was carried out after the test plants had emerged after a test period of 2 to 4 weeks, in comparison with untreated controls.

Corn (Aventura) [2] = assay: Pre-emergence herbicidal effect and safener effect, Corn (Aventura); settings: herbicide dosage 100 g a.i./ha, visual scoring vs untreated controls
From the text: as §2, §3

Q: `COC(=O)c1nc(-c2ccc(Cl)c(OC)c2F)nc(N)c1Cl` [Compound I-272] was tested. Which “% Effect (without safener)” value (Barley (Adonis)) did it give?
A: 20%

Q: What about the “% Effect (without safener)” value (Rice (Ballila)) of the same molecule?
A: 70%

Q: What about the “% Effect (without safener)” value (Corn (Aventura) [1]) of the same molecule?
A: 70%

Q: What about the “% Effect (without safener)” value (Wheat (Triso)) of the same molecule?
A: 30%

Q: What about the “% Effect (without safener)” value (Corn (Aventura) [2]) of the same molecule?
A: 70%
